Data published in ChEMBL document CHEMBL1201862, “PubChem BioAssay data set” (2004).
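Five concentrations, 48 hours, 96-well plates. GI50: concentration for 50% inhibition of growth.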 Activity calls are given as the source filed them. Cut-off read from the data, not from the text of the source: active = GI50 up to about 1.1 µM and inactive = higher.

Key:
Test in all cases: growth of human tumour cells (NCI), 48 h
[1] = test system: 786-0
[2] = test system: A498
[3] = test system: A549
[4] = test system: ACHN
[5] = test system: BT-549
[6] = test system: CAKI-1
[7] = test system: CCRF-CEM
[8] = test system: COLO 205
[9] = test system: DU-145
[10] = test system: EKVX
[11] = test system: HCC 2998
[12] = test system: HCT-116
[13] = test system: HCT-15
[14] = test system: HL-60
[15] = test system: HOP-62
[16] = test system: HOP-92
[17] = test system: HT-29
[18] = test system: Hs-578T
[19] = test system: IGROV-1
[20] = test system: KM12
[21] = test system: LOX IMVI
[22] = test system: M14
[23] = test system: MCF7
[24] = test system: MDA-MB-231
[25] = test system: MDA-MB-435
[26] = test system: MDA-N
[27] = test system: MOLT-4
[28] = test system: Malme-3M
[29] = test system: NCI-H226
[30] = test system: NCI-H23
[31] = test system: NCI-H460
[32] = test system: NCI-H522
[33] = test system: NCI/ADR-RES
[34] = test system: OVCAR-4
[35] = test system: OVCAR-5
[36] = test system: OVCAR-8
[37] = test system: PC-3
[38] = test system: RPMI-8226
[39] = test system: RXF 393
[40] = test system: SF-268
[41] = test system: SF-539
[42] = test system: SK-MEL-28
[43] = test system: SK-MEL-2
[44] = test system: SK-MEL-5
[45] = test system: SN12C
[46] = test system: SNB-19
[47] = test system: SNB-75
[48] = test system: SR
[49] = test system: SW-620
[50] = test system: T47D
[51] = test system: TK-10
[52] = test system: U-251
[53] = test system: UACC-257
[54] = test system: UO-31
[55] = test system: K562
[56] = test system: OVCAR-3
[57] = test system: SF-295
[58] = test system: SK-OV-3
[59] = test system: UACC-62

In the case of `C#CCOC(=O)C(N)CCCNC(=N)N` (stereo unspecified), the GI50 [1] is reported as > 100 µM (inactive), the GI50 [2] is reported as > 100 µM (inactive) and the GI50 [3] is reported as > 100 µM (inactive). The GI50 [4] was > 100 µM (inactive), the GI50 [5] was > 100 µM (inactive) and the GI50 [6] was > 100 µM (inactive). The GI50 [7] was > 100 µM (inactive), the GI50 [8] was > 100 µM (inactive) and the GI50 [9] was > 100 µM (inactive). For the same compound, the GI50 [10] was > 100 µM (inactive), the GI50 [11] was > 100 µM (inactive) and the GI50 [12] was > 100 µM (inactive). For the same compound, the GI50 [13] was > 100 µM, the GI50 [14] was > 100 µM (inactive) and the GI50 [15] was > 100 µM (inactive). The GI50 [16] was > 100 µM (inactive), the GI50 [17] was > 100 µM (inactive) and the GI50 [18] was > 100 µM (inactive). The GI50 [19] was > 100 µM (inactive), the GI50 [20] was > 100 µM (inactive) and the GI50 [21] was > 100 µM (inactive). For the same compound, the GI50 [22] was > 100 µM (inactive), the GI50 [23] was > 100 µM (inactive) and the GI50 [24] was > 100 µM (inactive). The GI50 [25] was > 100 µM (inactive), the GI50 [26] was > 100 µM (inactive) and the GI50 [27] was > 100 µM (inactive). For the same compound, the GI50 [28] was > 100 µM (inactive), the GI50 [29] was > 100 µM (inactive) and the GI50 [30] was > 100 µM (inactive). For the same compound, the GI50 [31] was > 100 µM (inactive), the GI50 [32] was > 100 µM (inactive) and the GI50 [33] was > 100 µM (inactive). For the same compound, the GI50 [34] was > 100 µM (inactive), the GI50 [35] was > 100 µM (inactive) and the GI50 [36] was > 100 µM (inactive). The GI50 [37] was > 100 µM (inactive), the GI50 [38] was > 100 µM (inactive) and the GI50 [39] was > 100 µM (inactive). The GI50 [40] was > 100 µM (inactive), the GI50 [41] was > 100 µM (inactive) and the GI50 [42] was > 100 µM (inactive). For the same compound, the GI50 [43] was > 100 µM (inactive), the GI50 [44] was > 100 µM (inactive) and the GI50 [45] was > 100 µM (inactive). The GI50 [46] was > 100 µM (inactive), the GI50 [47] was > 100 µM (inactive) and the GI50 [48] was > 100 µM (inactive). For the same compound, the GI50 [49] was > 100 µM (inactive), the GI50 [50] was > 100 µM (inactive) and the GI50 [51] was > 100 µM (inactive). For the same compound, the GI50 [52] was > 100 µM (inactive), the GI50 [53] was > 100 µM (inactive) and the GI50 [54] was > 100 µM (inactive).
For `O=C(CC(O)(C(F)(F)F)C(F)(F)F)C(c1ccccc1)C(O)(C(F)(F)F)C(F)(F)F` (stereo unspecified), the GI50 [1] was 31.3 µM (inactive), the GI50 [2] was 13.9 µM (inactive) and the GI50 [3] was 22.2 µM (inactive). The GI50 [4] was 17.4 µM (inactive), the GI50 [5] was 24 µM (inactive) and the GI50 [6] was 10.5 µM (inactive). The GI50 [7] was 5.56 µM (inactive), the GI50 [8] was 11.4 µM (inactive) and the GI50 [9] was 26.1 µM (inactive). For the same compound, the GI50 [10] was 18.4 µM (inactive), the GI50 [11] was 9.1 µM (inactive) and the GI50 [12] was 16.4 µM (inactive). The GI50 [13] was 9.53 µM, the GI50 [14] was 9.71 µM (inactive) and the GI50 [16] was 3.72 µM (inactive). For the same compound, the GI50 [17] was 15.2 µM (inactive), the GI50 [18] was 4.15 µM (inactive) and the GI50 [19] was 5.77 µM (inactive). The GI50 [55] was 7.6 µM (inactive), the GI50 [20] was 8.55 µM (inactive) and the GI50 [21] was 55.7 µM (inactive). For the same compound, the GI50 [22] was 41.2 µM (inactive), the GI50 [23] was 45.7 µM (inactive) and the GI50 [24] was > 100 µM (inactive). For the same compound, the GI50 [25] was 47.3 µM (inactive), the GI50 [26] was 78.2 µM (inactive) and the GI50 [27] was 62.8 µM (inactive). For the same compound, the GI50 [28] was 50.4 µM (inactive), the GI50 [29] was 42.8 µM (inactive) and the GI50 [30] was 6.47 µM (inactive). The GI50 [31] was 6.08 µM (inactive), the GI50 [32] was 38.3 µM (inactive) and the GI50 [33] was 8.87 µM (inactive). The GI50 [56] was 11.5 µM (inactive), the GI50 [34] was > 100 µM (inactive) and the GI50 [35] was > 100 µM (inactive). For the same compound, the GI50 [36] was 14.8 µM (inactive), the GI50 [37] was 4.15 µM (inactive) and the GI50 [38] was 5.33 µM (inactive). For the same compound, the GI50 [39] was 5.14 µM (inactive), the GI50 [57] was 40 µM (inactive) and the GI50 [41] was 17.1 µM (inactive). The GI50 [42] was 25.4 µM (inactive), the GI50 [43] was 35.1 µM (inactive) and the GI50 [44] was 18.8 µM (inactive). For the same compound, the GI50 [58] was 5.92 µM (inactive), the GI50 [46] was 18.3 µM (inactive) and the GI50 [47] was 1.93 µM (inactive). The GI50 [48] was 9.31 µM (inactive), the GI50 [49] was 14.4 µM (inactive) and the GI50 [50] was 13.1 µM (inactive). For the same compound, the GI50 [51] was 26.3 µM (inactive), the GI50 [52] was 5.45 µM (inactive) and the GI50 [53] was 31.8 µM (inactive). The GI50 [59] was 20.5 µM (inactive) and the GI50 [54] was 10.3 µM (inactive).
In the case of `CC(=O)NC1C(OCc2ccccc2)OC(CO)C(O)C1OC(C)C(=O)NC(C(=O)N[C@@H](CCC(=O)NCCNCCNc1c2ccccc2nc2cccc([N+](=O)[O-])c12)C(N)=O)C(C)C` (stereo partly specified), the GI50 [1] is reported as 22.4 µM (inactive), the GI50 [2] is reported as 41.8 µM (inactive) and the GI50 [3] is reported as 14.8 µM (inactive). The GI50 [4] was 16.4 µM (inactive), the GI50 [5] was > 100 µM (inactive) and the GI50 [6] was 30.3 µM (inactive). The GI50 [7] was 17.8 µM (inactive), the GI50 [8] was 20.1 µM (inactive) and the GI50 [9] was 33 µM (inactive). The GI50 [11] was 21 µM (inactive), the GI50 [12] was 19.9 µM (inactive) and the GI50 [13] was 24.7 µM. The GI50 [14] was 10.1 µM (inactive), the GI50 [15] was 30.1 µM (inactive) and the GI50 [16] was 18.2 µM (inactive). The GI50 [18] was > 100 µM (inactive), the GI50 [19] was 33.6 µM (inactive) and the GI50 [55] was 0.0158 µM (active). The GI50 [20] was 26.5 µM (inactive), the GI50 [21] was 29.2 µM (inactive) and the GI50 [22] was 15.4 µM (inactive). For the same compound, the GI50 [23] was 6.7 µM (inactive), the GI50 [24] was 70.6 µM (inactive) and the GI50 [25] was 14.1 µM (inactive). The GI50 [26] was 20.1 µM (inactive), the GI50 [27] was 23.6 µM (inactive) and the GI50 [28] was 36.2 µM (inactive). For the same compound, the GI50 [29] was > 100 µM (inactive), the GI50 [30] was 34 µM (inactive) and the GI50 [31] was 14.7 µM (inactive). For the same compound, the GI50 [33] was 91.6 µM (inactive), the GI50 [56] was 25.8 µM (inactive) and the GI50 [34] was 29.2 µM (inactive). For the same compound, the GI50 [36] was 19.6 µM (inactive), the GI50 [37] was 28.4 µM (inactive) and the GI50 [38] was 17.9 µM (inactive). For the same compound, the GI50 [40] was 36.1 µM (inactive), the GI50 [57] was 48.5 µM (inactive) and the GI50 [41] was 14.9 µM (inactive). For the same compound, the GI50 [42] was 41.4 µM (inactive), the GI50 [43] was 20 µM (inactive) and the GI50 [58] was > 100 µM (inactive). The GI50 [45] was 20.9 µM (inactive), the GI50 [46] was 64.1 µM (inactive) and the GI50 [47] was 77.4 µM (inactive). The GI50 [48] was 1.78 µM (inactive), the GI50 [49] was 13.2 µM (inactive) and the GI50 [50] was 68.2 µM (inactive). The GI50 [51] was 37.8 µM (inactive), the GI50 [52] was 65.8 µM (inactive) and the GI50 [54] was 21.7 µM (inactive).
